# Several values for one entry are separate records, joined by “and”; a condition that tells them apart may be missing. Equal entries are not always repeated. Structures can show the parent of a compound that is named as a salt.
# What was measured:
# [1] = system: experimental acute pancreatitis model; test: Effects against acute pancreatitis (Test Example 7, closed duodenal loop method, gross pathological examination); assay type: in vivo, Crj-CD male rats; parameters: key: -: No significant lesions; ±: Minimal; +: Light; ++: Moderate; +++: Marked; details: 40 mg per kg continuous intravenous injection, examination 3 hours after ventrotomy, individual rats
# Procedure: (§1) Using Crj-CD male rats (for Compound No. 19, rats having a body weight of from 371 to 484 g were used, and for Compound No. 10, rats having a body weight of from 444 to 574 g were used), each test group consisted of 3 rats. An experimental acute pancreatitis model was prepared by a closed duodenal loop method under anesthesia with halothane (manufactured by Hoechst Japan) and nitrous oxide (manufactured by Sumitomo Seika K.K.) applied by means of a general inhalation anesthesia machine (Model EM-2 and halothane evaporator F-Model). Then, Compound No. 19 or Compound No. 10 was continuously intravenously injected into the tail vein in an amount of 50 mg per kg or 40 mg per kg, respectively, at a rate of 0.05 ml per minute by means of a pump (Technicon AA II Proportioning Pump III, manufactured by Technicon Instruments Corporation). No injection was made to a control group. Gross pathological examination was conducted upon expiration of 6 hours after the ventrotomy in the case of the test group to which Compound No. 19 was administered, or upon expiration of 3 hours after the ventrotomy in the case of the test group to which Compound No. 10 was administered. As a result, as shown in the following Table 12, the groups to which the compounds of the present invention were administered, show distinct usefulness for treating acute pancreatitis.
# [2] = system: experimental acute pancreatitis model; test: as above; assay type: in vivo, Crj-CD male rats; parameters: key to Pancreatic edema Distribution: -: No significant lesions; ± ∼ +++: Focal-diffuse; ± ∼ +++: Focal-diffuse; ± ∼ +++: Focal-diffuse; ± ∼ +++: Focal-diffuse; key to Pancreatic hemorrhage Petechia Grade / Pancreatic edema Grade: -: No significant lesions; ±: Minimal; +: Light; ++: Moderate; +++: Marked; details: 40 mg per kg continuous intravenous injection, examination 3 hours after ventrotomy, individual rats
# Procedure: as §1
# [3] = system: ddy male mice; test: Acute toxicity, intravenous injection (LD50); assay type: in vivo; details: sodium salt, mortality over one week, 10080 min
# Procedure: Administration route: Intravenous injection
# Using ddy male mice (body weight: 25 - 30 g), each test group consisted of 5 mice. A test compound was dissolved in the form of a sodium salt in a physiological saline or in a 5% glucose aqueous solution, and intravenously injected in an amount of 0.1 ml/10 g body weight. After the injection, the mortality rate was obtained over one week, and the median lethal dose LD50 (mg/kg) was determined.
Compound,Pancreatic hemorrhage Petechia Distribution [1],Pancreatic edema Distribution [2],Pancreatic edema Grade [2],Pancreatic hemorrhage Petechia Grade [2],LD50 [3]
"CS(=O)(=O)Nc1ncc(C(F)(F)F)cc1NC(=O)c1ccc(F)cc1 [Compound No. 10, N-(2-methylsulfonylamino-5-trifluoromethyl-3-pyridyl)-4-fluorobenzamide]",-,± and + (2×),± and + and ††,± and - and +,
"CCS(=O)(=O)Nc1ncc(C(F)(F)F)cc1NC(=O)C1CCCCC1 [Compound No. 251, sodium salt of N-(2-ethylsulfonylamino-5-trifluoromethyl-3-pyridyl)cyclohexanecarboxamide]",,,,,65 mg/kg

# — EP0465913B1, “Diaminotrifluoromethylpyrimidine derivatives, process for their production and phospholipase A2 inhibitor containing them” (ISHIHARA SANGYO KAISHA, LTD., priority 1990, dated 1992)
